# Data from patent US20060206946A1, “Method of disrupting heme transport in nematodes and of modelling and evaluating eukaryotic heme transport” (priority 2005, published 2006).
# Assays:
# [1] = test system: R02E12.6; experiment: qRT-PCR validation of heme-regulated genes (2^-ΔΔCt method); type: in vivo, Caenorhabditis elegans; details: low heme
# Method: The initial statistical analysis of the Affymetrix genome array was performed at the NIDDK microarray facility using Affymetrix MAS 5.0 Suite software. […] To further narrow-down candidate genes, we eliminated 58 genes that are involved in worm developmental processes by comparing the data from the gene chip to the microarray data of S. Kim. See Kim, S. K. et al., Science 293, 2087-2092 (2001). […] These 280 genes were then sorted based on different categories of changes in gene expression (up, down or no change) seen in 4 μM versus 500 μM samples using 20 μM dataset as the baseline (Table XX). Protein sequence motif analysis (BLOCKS, PRINTS, Pfam), transmembrane (TM-HMM) and secondary structure predictions (ExPASy) proteomics tools are performed to identify domains and motifs within the predicted ORFs […] and the housekeeping gene Ct value: ΔCt=Ctsample−Ctreference. Relative mRNA abundance represents the difference between ΔCt values for a pair of conditions, i.e., 4 μM versus […]. Relative mRNA expression is exponential and defined by the formula [Mrna]=2^−ΔΔCt. […] The standard error for ΔΔCt will be calculated by the method of Livak and Schmittgen. […]
# [2] = test system: C. elegans mutant IH1048; experiment: Growth of heme resistant mutant in CeHR medium; type: in vivo, Caenorhabditis elegans; design: key to Growth 1.6 μM hemin / Growth 0.5 μM GaPP: + = wild type equivalent In growth; ND: No growth
# Method: To further increase the stringency of our genetic screen we split the contents from each 800 μM hemin selection flasks into two flasks containing either 800 μM or 1000 μM hemin. This allowed us to use another tier of positive selection to identify mutants with greater resistance to heme toxicity. Mutants from each flask were isolated and treated as a separate entity by giving an identification number based on the Genetic Nomenclature Guidelines used for C. elegans (http://biosci.umn.edu/CGC/Nomenclature/nomenguid.htm). To eliminate EMS-induced spurious mutations that could result in false positive, the mutants were outcrossed to wild-type N2 males. After five outcrosses, which replaces ˜97% of the mutant genome, mutants that bred true were selected for further analysis. Using this procedure, we isolated 13 individual mutants that were resistant to heme toxicity. These mutants were further characterized by analyzing Mendelian segregation ratios, X-linkage, phenotype penetrance, generation times, brood size, and their ability to grow under low hemin. […] This observation was surprising because we anticipated that high heme-resistant mutants will grow poorly under low heme. Based on the mutant's growth profile at low and high heme levels, we broadly categorized them into three phenotypic classes: class A, class B and class C (FIG. 13). These “phenoclusters” have the following growth phenotype: (a) three mutants IH728, IH938, IH731 show with robust growth under low and high (≧800 μM heme (FIG. 13B), (b) one mutant IH828 show exceptional growth under low heme, moderate growth at ≦800 μM heme, and no growth at 1000 μM hemin (FIG. 13C), and (c) six mutants IH921, IH11058, IH1068n, IH1068d, IH1048, and IH718 that show moderate growth under high heme (≦800 μM), but normal growth under low heme (FIG. 13D). By classifying these mutants into phenoclusters, we can focus our efforts on the phenotypic datasets to map the molecular networks and pathways involved in heme dependent processes. For instance, mutants in a cluster may have mutations within the same gene or in multiple genes but within the same pathway.
# Worm Culture and Growth Assays. Free-living worms were cultured in CeHR axenic liquid medium (Dr. Eric Clegg, Personal Communication). […] CeHR medium was modified (henceforth called mCeHR) to eliminate all sources of exogenously added heme; basal growth medium comprised 20 μM hemin chloride (Frontier Scientific, Logan, Utah) and 150 μM of ferrous ammonium sulfate (Sigma Chemicals). Worm strains were grown in mCeHR medium under aerobic conditions in tissue culture flasks at 20° C. ˜3.7×10^6 worms were routinely obtained after 3.5 to 4 days in a T75 flask with 30 ml basal medium from an initial inoculum of −1.5×10^5 worms. For initial culturing of worms in axenic media, three generations of worms were sequentially bleached (1.1% bleach/0.55 M NaOH) to eliminate any contaminating bacterial carryover from agar plates. In all dose-response experiments, worms were growth synchronized by treating the gravid hermaphrodite worms with bleach to dissolve adult worms. The eggs, resistant to bleach, were liberated from the carcasses and extensively washed with M9 buffer followed by overnight hatching in M9 buffer to synchronize growth. By harvesting at appropriate time intervals, synchronous larval stages and adult staged worms were collected for experimental manipulations. Identical numbers of synchronized L1 larvae were inoculated into media with different heme concentrations in 12- or 24-well culture plates. Worm growth was monitored each day and an aliquot was obtained for counting by microscopy usually at days 3, 6, and 9. The worms in each well were counted twice and each growth condition was analyzed in triplicate. P values for statistical significance were calculated utilizing a one-way ANOVA with Student-Newman-Keuls multiple comparison test using GraphPad Instat version 3.01. […]
substance,measurement,setting,value
hemin chloride,upregulation of R02E12.6 by qRT-PCR,[1],> 40 fold
same,Growth 1.6 μM hemin,[2],+
same,Generation time (Days) 800 μM,[2]; 800 μM hemin,4 days
